PubChem BioAssay AID248 (DTP/NCI, 2004)
“And” between values parts separate entries of the source, which are not always exact repeats. Equal entries are not always repeated. Toxic doses and inconclusive results are not listed. Cut-off read from the data, not from the text of the source: active = T/C of 150% or more; inactive = T/C below 125%.

System: L1210 leukemia ip in BDF1 mice, survival T/C
Experiment: NCI In Vivo Anticancer Drug Screen. Data for tumor model L1210 Leukemia (intraperitoneal) in B6D2F1 (BDF1) mice
Settings: endpoint: mean survival time, higher = longer survival
Procedure, shortened: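 Survival endpoint. Drug-treated group vs vehicle group, expressed as T divided by C. Tumor passaged by transplantation.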

[1] = dose: 25.0 mg/kg/injection, schedule: Q04DX003 (ip), vehicle: saline with Tween-80
[2] = dose: 100.0 mg/kg/injection, schedule: Q01DX001 (ip), vehicle: saline
[3] = dose: 100.0 mg/kg/injection, schedule: Q01DX009 (ip), vehicle: saline
[4] = dose: 100.0 mg/kg/injection, schedule: Q04DX003 (ip), vehicle: saline
[5] = dose: 200.0 mg/kg/injection, schedule: Q01DX001 (ip), vehicle: saline
[6] = dose: 200.0 mg/kg/injection, schedule: Q01DX009 (ip), vehicle: saline
[7] = dose: 200.0 mg/kg/injection, schedule: Q04DX003 (ip), vehicle: saline
[8] = dose: 400.0 mg/kg/injection, schedule: Q01DX001 (ip), vehicle: saline
[9] = dose: 400.0 mg/kg/injection, schedule: Q01DX009 (ip), vehicle: saline
[10] = dose: 400.0 mg/kg/injection, schedule: Q04DX003 (ip), vehicle: saline
[11] = dose: 50.0 mg/kg/injection, schedule: Q01DX009 (ip), vehicle: Klucel (hydroxypropylcellulose) (HPC)
[12] = dose: 100.0 mg/kg/injection, schedule: Q01DX009 (ip), vehicle: Klucel (hydroxypropylcellulose) (HPC)
[13] = dose: 100.0 mg/kg/injection, schedule: Q01DX001 (ip), vehicle: carboxymethylcellulose (CMC)
[14] = dose: 400.0 mg/kg/injection, schedule: Q01DX001 (ip), vehicle: carboxymethylcellulose (CMC)
[15] = dose: 50.0 mg/kg/injection, schedule: Q01DX001 (ip), vehicle: carboxymethylcellulose (CMC)
[16] = dose: 200.0 mg/kg/injection, schedule: Q01DX001 (ip), vehicle: carboxymethylcellulose (CMC)

Measured: T/C

O=S(=O)(F)/C=C/c1ccccc1
inactive: dose: 15.0 mg/kg/injection, schedule: Q01DX015 (ip), vehicle: saline 96 % of control | dose: 30.0 mg/kg/injection, schedule: Q01DX015 (ip), vehicle: saline 96 % of control | dose: 60.0 mg/kg/injection, schedule: Q01DX015 (ip), vehicle: saline 100 % of control | dose: 120.0 mg/kg/injection, schedule: Q01DX015 (ip), vehicle: saline 96 % of control

CC(CNN=C(N)N)NN=C(N)N (configuration not stated)
inactive: dose: 30.0 mg/kg/injection, schedule: Q01DX Z (ip), vehicle: saline 116 % of control | dose: 60.0 mg/kg/injection, schedule: Q01DX Z (ip), vehicle: saline 100 % of control | dose: 120.0 mg/kg/injection, schedule: Q01DX Z (ip), vehicle: saline 96 % of control

CC(C)CC(C=O)(CCN(C)C)c1cccc2ccccc12 (configuration not stated)
inactive: dose: 12.5 mg/kg/injection, schedule: Q04DX003 (ip), vehicle: saline with Tween-80 107 % of control | [1] 103 % of control | dose: 50.0 mg/kg/injection, schedule: Q04DX003 (ip), vehicle: saline with Tween-80 92 % of control

CC1COCC(C)N1C(=O)c1cccnc1 (configuration not stated)
inactive: [2] 99 % of control | [3] 101 % of control and 103 % of control | dose: 100.0 mg/kg/injection, schedule: Q04DX002 (ip), vehicle: saline 96 % of control and 100 % of control | [4] 100 % of control | [5] 99 % of control | [6] 113 % of control and 114 % of control | dose: 200.0 mg/kg/injection, schedule: Q04DX002 (ip), vehicle: saline 107 % of control and 110 % of control | [7] 105 % of control | [8] 101 % of control | [9] 103 % of control | dose: 400.0 mg/kg/injection, schedule: Q04DX002 (ip), vehicle: saline 105 % of control and 110 % of control | [10] 105 % of control

CC(=O)C(N=Nc1ccccc1)C(C)=O
inactive: dose: 25.0 mg/kg/injection, schedule: Q01DX009 (ip), vehicle: Klucel (hydroxypropylcellulose) (HPC) 94 % of control | [11] 92 % of control | [12] 97 % of control and 102 % of control

CCOC(=O)c1c[nH]c2c(Cl)ccc(-c3ccccc3)c2c1=O
inactive: dose: 100.0 mg/kg/injection, schedule: Q01DX001 (ip), vehicle: saline with Tween-80 98 % of control | dose: 200.0 mg/kg/injection, schedule: Q01DX001 (ip), vehicle: saline with Tween-80 96 % of control | dose: 400.0 mg/kg/injection, schedule: Q01DX001 (ip), vehicle: saline with Tween-80 93 % of control

N#CCC1(O)c2ccccc2-c2ccccc21
inactive: dose: 50.0 mg/kg/injection, schedule: Q01DX001 (ip), vehicle: saline 98 % of control | [2] 98 % of control | [5] 102 % of control | [8] 96 % of control

CCS(=O)(=O)CC
inactive: [3] 101 % of control | [4] 100 % of control | [6] 106 % of control | [7] 107 % of control | [9] 97 % of control | [10] 95 % of control

COc1ccc(NCNc2ccc(OC)cc2)cc1
inactive: [11] 94 % of control | [12] 98 % of control | dose: 100.0 mg/kg/injection, schedule: Q04DX003 (ip), vehicle: Klucel (hydroxypropylcellulose) (HPC) 103 % of control | dose: 200.0 mg/kg/injection, schedule: Q04DX003 (ip), vehicle: Klucel (hydroxypropylcellulose) (HPC) 103 % of control

Nc1nc(N)c(N=Nc2ccc([As](=O)(O)O)c(O)c2)c(=O)[nH]1
inactive: [2] 91 % of control | [5] 93 % of control | [8] 93 % of control

CN(C)/N=C1\CCc2ccccc21
inactive: [2] 106 % of control | [3] 102 % of control | [5] 113 % of control | [8] 101 % of control

C=Cc1c(C)c(O)cc2c1-c1ccc(O)c(C)c1CC2
inactive: dose: 6.25 mg/kg/injection, schedule: Q01DX009 (ip), vehicle: saline with Tween-80 102 % of control | dose: 12.5 mg/kg/injection, schedule: Q01DX009 (ip), vehicle: saline with Tween-80 102 % of control | dose: 25.0 mg/kg/injection, schedule: Q01DX009 (ip), vehicle: saline with Tween-80 98 % of control | dose: 50.0 mg/kg/injection, schedule: Q01DX009 (ip), vehicle: saline with Tween-80 91 % of control

Cc1nccc(Cl)n1
inactive: [4] 104 % of control | [7] 90 % of control | [10] 93 % of control

COc1cc(N2CCOCC2)ccc1[N+](=O)[O-]
inactive: dose: 50.0 mg/kg/injection, schedule: Q01DX009 (ip), vehicle: saline 105 % of control | [3] 103 % of control | [4] 102 % of control | [6] 105 % of control | [7] 103 % of control

CCCCCc1ccc(/C(C)=N/NC(=O)c2ccc[n+](C)c2)cc1
inactive: dose: 6.25 mg/kg/injection, schedule: Q04DX003 (ip), vehicle: saline 101 % of control | dose: 12.5 mg/kg/injection, schedule: Q04DX003 (ip), vehicle: saline 95 % of control | [1] 98 % of control | dose: 25.0 mg/kg/injection, schedule: Q04DX003 (ip), vehicle: saline 95 % of control

O=C(Nc1ccc(Cl)c(Cl)c1)Oc1cccc(NC(=S)Nc2ccccc2)c1
inactive: [12] 94 % of control | dose: 200.0 mg/kg/injection, schedule: Q01DX009 (ip), vehicle: Klucel (hydroxypropylcellulose) (HPC) 94 % of control | dose: 400.0 mg/kg/injection, schedule: Q01DX009 (ip), vehicle: Klucel (hydroxypropylcellulose) (HPC) 94 % of control

c1ccc(N2CCNCC2)cc1 (tested in a mixture with another compound)
inactive: dose: 5.0 mg/kg/injection, schedule: Q01DX001 (ip), vehicle: saline 105 % of control and 101 % of control and 97 % of control | dose: 10.0 mg/kg/injection, schedule: Q01DX001 (ip), vehicle: saline 105 % of control and 97 % of control | dose: 20.0 mg/kg/injection, schedule: Q01DX001 (ip), vehicle: saline 105 % of control and 94 % of control and 95 % of control | dose: 40.0 mg/kg/injection, schedule: Q01DX001 (ip), vehicle: saline 102 % of control and 100 % of control | dose: 80.0 mg/kg/injection, schedule: Q01DX001 (ip), vehicle: saline 100 % of control | [2] 98 % of control | [5] 96 % of control

CC(C)CC(NC(=O)OC(C)(C)C)C(=O)NC(Cc1c[nH]c2ccccc12)C(=O)NN (configuration not stated)
inactive: [13] 88 % of control | [14] 94 % of control

COc1cc(C(=O)O)c2c(c1C)OC(=O)c1c(C)cc(O)c(C=O)c1O2
inactive: dose: 8.0 mg/kg/injection, schedule: Q01DX Z (ip), vehicle: saline 91 % of control | dose: 16.0 mg/kg/injection, schedule: Q01DX Z (ip), vehicle: saline 102 % of control | dose: 32.0 mg/kg/injection, schedule: Q01DX Z (ip), vehicle: saline 100 % of control | dose: 40.0 mg/kg/injection, schedule: Q04DX003 (ip), vehicle: Klucel (hydroxypropylcellulose) (HPC) 97 % of control | dose: 64.0 mg/kg/injection, schedule: Q01DX Z (ip), vehicle: saline 111 % of control | dose: 80.0 mg/kg/injection, schedule: Q04DX003 (ip), vehicle: Klucel (hydroxypropylcellulose) (HPC) 107 % of control | dose: 160.0 mg/kg/injection, schedule: Q04DX003 (ip), vehicle: Klucel (hydroxypropylcellulose) (HPC) 107 % of control

O=CC(=O)c1ccc(O)cc1
inactive: dose: 50.0 mg/kg/injection, schedule: Q01DX009 (ip), vehicle: saline sonified 114 % of control | dose: 50.0 mg/kg/injection, schedule: Q04DX003 (ip), vehicle: saline 111 % of control | dose: 66.0 mg/kg/injection, schedule: Q04DX003 (ip), vehicle: saline 97 % of control | dose: 100.0 mg/kg/injection, schedule: Q01DX009 (ip), vehicle: saline sonified 119 % of control | [4] 103 % of control and 111 % of control | dose: 150.0 mg/kg/injection, schedule: Q04DX003 (ip), vehicle: saline 103 % of control | [7] 117 % of control

Cc1ccc(NC(=O)NCCBr)cc1
inactive: [15] 101 % of control | [13] 101 % of control | [16] 106 % of control | [14] 98 % of control

Cc1ccc2c(c1)C(=O)c1ccccc1C2=O
inactive: [15] 95 % of control | [13] 101 % of control | dose: 100.0 mg/kg/injection, schedule: Q04DX002 (ip), vehicle: Klucel (hydroxypropylcellulose) (HPC) 100 % of control | [16] 91 % of control | dose: 200.0 mg/kg/injection, schedule: Q04DX002 (ip), vehicle: Klucel (hydroxypropylcellulose) (HPC) 107 % of control | [14] 95 % of control | dose: 400.0 mg/kg/injection, schedule: Q04DX002 (ip), vehicle: Klucel (hydroxypropylcellulose) (HPC) 96 % of control
